For one experiment, the target named is T1, Human CB2 (Homo sapiens, UniProt P34972).
T1 construct: expressed in transfected cells; membrane preparation
Put plainly: Human CB2 Radioligand Binding Assay. Conditions: membranes from stably transfected CHO CB2 cells; competition with [3H] CP-55,940; read-out: CB2 Ligand Binding Asssay. The procedure:
(§1) This receptor binding filtration assay measures the receptor-ligand interactions of compounds by measuring ability to compete with a radiolabeled control ligand. Reactions were performed in 96 deep-well plate (Costar 3961) with a final volume of 600 ul. Compounds were added to each well either in single point (10 uM final) or dose-response. Compounds were delivered in DMSO or further diluted in incubation buffer to a final assay DMSO concentration of 1%. Incubation buffer (50 mM Tris-HCl pH 7.4, 2.5 mM EGTA, 5 mM MgCl2, 5.0 mg/ml fatty acid free BSA) was added to each well. Following buffer addition, [^3H] CP-55,940 was added. Tritiated CP-55,940 (Perkin Elmer) was used at the Kd determined from prior saturation binding experiments conducted on each lot of membranes. Membrane preparations from stably transfected CHO CB2 cells were added and the reaction was incubated for 90 minutes at 30° C. Unifilter GF/C filtration plates (Perkin Elmer) were pre-wet with 0.05% polyethylenimine. Samples were transferred to Unifilter plates and separation of unbound radioligand was achieved using a vacuum manifold (Millipore). Following thorough washing with 5 ml/well ice-cold wash buffer (50 mM Tris-HCl pH 7.4, 2.5 mM EGTA, 5 mM MgCl2, 0.5 mg/ml fatty acid free BSA), filterplates were dried completely. Betaplate Scint Scintillation cocktail (25 ul, Perkin Elmer) was applied and plates were read using Microbeta Trilux (Wallac). Data analysis was performed in Spotfire. Activity of the positive control (100 nM CP-55,940) was set as 100% efficacy.
Stable recombinant Human CB2-CHO cell membranes were prepared as follows: Chinese Hamster Ovarian (CHO) cells stably expressing human cannabinoid receptor type 2 were grown to ˜90% confluence in 15×100 mm culture dishes under puromycin selection (5 ug/ml) Cells were harvested from culture flasks using a cell scraper, were washed once with cold phosphate-buffered saline (calcium and magnesium free) and pelleted by centrifugation at 400 g for 5 min at 4° C. Cell pellet was washed once with cold phosphate-buffered saline and centrifuged again at 400×g for 5 min at 4° C. The pellet was suspended in ice-cold lysis buffer (10 mM Tris-HCl, 0.1 mM EDTA, containing […], pH 7.5) and homogenized in a chilled 7 ml glass dounce homogenizer using 50 strokes. The homogenate was centrifuged at 400 g for 15 min at 4° C. The cloudy supernatant was collected and centrifuged at 41000 g for 30 min at 4° C. The resulting pellet was washed with ice-cold sucrose-free lysis buffer and centrifuged again at 41000 g for 30 min at 4° C. The membrane pellet was suspended in sucrose-free storage buffer (10 mm Tris-HCl, 0.1 mM EDTA, pH 7.5) to a concentration of 2-3 mg protein/ml. Aliquots were flash frozen in liquid nitrogen and stored at −80° C. Concentration was determined using Dc protein assay kit (Bio-Rad).

The target in experiment [1] is T2, human cannabinoid receptor type 1 (Homo sapiens, UniProt P21554).
T2 construct: purchased Perkin Elmer RBHCB1M; host or cells: HEK 293 EBNA cells
T2 sequence (P21554 whole entry): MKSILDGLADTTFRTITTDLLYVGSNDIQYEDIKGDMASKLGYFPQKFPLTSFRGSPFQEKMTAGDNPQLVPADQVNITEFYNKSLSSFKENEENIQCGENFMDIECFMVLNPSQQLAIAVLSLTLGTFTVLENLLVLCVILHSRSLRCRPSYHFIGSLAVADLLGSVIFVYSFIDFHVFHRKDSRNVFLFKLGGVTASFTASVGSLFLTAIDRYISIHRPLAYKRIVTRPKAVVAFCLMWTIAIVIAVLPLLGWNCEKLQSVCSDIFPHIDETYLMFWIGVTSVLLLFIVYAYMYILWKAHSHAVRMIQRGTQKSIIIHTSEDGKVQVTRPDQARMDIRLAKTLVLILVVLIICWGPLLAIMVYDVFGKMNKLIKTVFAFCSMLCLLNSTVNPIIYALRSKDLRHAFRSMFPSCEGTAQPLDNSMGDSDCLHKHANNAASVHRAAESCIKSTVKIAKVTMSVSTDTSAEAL
Kind of experiment: Human CB1 Radioligand Binding Assay (basis of selectivity CB2 vs. CB1). Here is the method:
as §1
The CB1 binding assay was performed as described above except that HEK 293 EBNA cells expressing human cannabinoid receptor type 1 (Perkin Elmer cat #RBHCB1M) were used according the manufacturer's instructions. The incubation buffer was composed of 50 mM Tris-HCl pH 7.4, 2.5 mM EDTA, 5 mM MgCl2, 5.0 mg/ml fatty acid free BSA and the wash buffer was composed of 50 mM Tris-HCl pH 7.4, 2.5 mM EDTA, 5 mM MgCl2, 0.5 mg/ml fatty acid free BSA. Activity of the positive control (100 nM CP-55,940) was set as 100% efficacy.

Structures are written as SMILES. Where only a bound is given, the exact number is not on record here.

T1 sequence (P34972 whole entry): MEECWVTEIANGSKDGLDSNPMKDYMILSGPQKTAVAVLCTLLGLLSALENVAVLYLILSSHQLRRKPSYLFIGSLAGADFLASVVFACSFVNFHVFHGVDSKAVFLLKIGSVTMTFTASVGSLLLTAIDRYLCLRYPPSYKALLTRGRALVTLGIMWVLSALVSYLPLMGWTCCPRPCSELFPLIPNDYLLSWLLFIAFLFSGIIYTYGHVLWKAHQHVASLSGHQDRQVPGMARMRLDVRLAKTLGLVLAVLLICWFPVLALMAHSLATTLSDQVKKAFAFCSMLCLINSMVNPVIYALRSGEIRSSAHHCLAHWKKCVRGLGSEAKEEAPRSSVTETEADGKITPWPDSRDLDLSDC

For `O=C(Nc1ccc(F)cc1F)[C@H]1CCCn2cccc2[C@@H]1c1ccccc1` (relative stereo) [Example 105, (8,9-trans)-N-(2,4-Difluorophenyl)-9-phenyl-6,7,8,9-tetrahydro-5H-pyrrolo[1,2-a]azepine-8-carboxamide], the IC50 (radioligand displacement) at Human CB2 is > 1000 nM. The “Selectivity, CB2 vs. CB1” value in experiment [1] was “− (− indicates < 10-fold)”.

With `O=C(Nc1ccc(F)c(F)c1)[C@H]1CCCn2cccc2[C@@H]1c1ccccc1` (relative stereo) [Example 107, (8,9-trans)-N-(3,4-Difluorophenyl)-9-phenyl-6,7,8,9-tetrahydro-5H-pyrrolo[1,2-a]azepine-8-carboxamide], at Human CB2, the IC50 (radioligand displacement) is > 1000 nM. Also, the “Selectivity, CB2 vs. CB1” value in experiment [1] is listed as “− (− indicates < 10-fold)”.

Take `O=C(Nc1ccc(Cl)cc1)[C@H]1CCCn2cccc2[C@@H]1c1ccccc1` (relative stereo) [Example 109, (8,9-trans)-N-(4-Chlorophenyl)-9-phenyl-6,7,8,9-tetrahydro-5H-pyrrolo[1,2-a]azepine-8-carboxamide]: on Human CB2, the IC50 (radioligand displacement) was > 1000 nM. Besides, in experiment [1], the “Selectivity, CB2 vs. CB1” value is “− (− indicates < 10-fold)”.

For the molecule `O=C(Nc1ccc(Cl)cc1)[C@H]1CCCn2cccc2[C@H]1c1ccccc1` (relative stereo) [Example 110, (8,9-cis)-N-(4-Chlorophenyl)-9-phenyl-6,7,8,9-tetrahydro-5H-pyrrolo[1,2-a]azepine-8-carboxamide], on Human CB2, the IC50 (radioligand displacement) was < 1000 nM. The “Selectivity, CB2 vs. CB1” value in experiment [1] is given as “− (− indicates < 10-fold)”.

Consider `O=C(Nc1ccc(C(F)(F)F)cc1)[C@H]1CCCn2cccc2[C@@H]1c1ccccc1` (relative stereo) [Example 111, (8,9-trans)-9-Phenyl-N-(4-(trifluoromethyl)phenyl)-6,7,8,9-tetrahydro-5H-pyrrolo[1,2-a]azepine-8-carboxamide], for which the IC50 (radioligand displacement) at Human CB2 is > 1000 nM. Moreover, the “Selectivity, CB2 vs. CB1” value in experiment [1] is listed as “− (− indicates < 10-fold)”.

With `O=C(Nc1ccc(OC(F)(F)F)cc1)[C@H]1CCCn2cccc2[C@H]1c1ccccc1` (relative stereo) [Example 114, (8,9-cis)-9-Phenyl-N-(4-(trifluoromethoxy)phenyl)-6,7,8,9-tetrahydro-5H-pyrrolo[1,2-a]azepine-8-carboxamide], the IC50 (radioligand displacement) at Human CB2 is < 1000 nM. Besides, the “Selectivity, CB2 vs. CB1” value in experiment [1] is listed as “− (− indicates < 10-fold)”.

Take `O=C(Nc1ccc(F)cc1F)C1CCCn2cccc2C1c1ccccc1` (single isomer, unassigned) [Example 106, (8,9-cis)-N-(2,4-Difluorophenyl)-9-phenyl-6,7,8,9-tetrahydro-5H-pyrrolo[1,2-a]azepine-8-carboxamide]: the IC50 (radioligand displacement) at Human CB2 is < 1000 nM. The “Selectivity, CB2 vs. CB1” value in experiment [1] is reported as “+ (+ indicates > 10-fold)”.

Turning to `O=C(Nc1ccc(F)c(F)c1)C1CCCn2cccc2C1c1ccccc1` (single isomer, unassigned) [Example 108, (8,9-cis)-N-(3,4-Difluorophenyl)-9-phenyl-6,7,8,9-tetrahydro-5H-pyrrolo[1,2-a]azepine-8-carboxamide], the IC50 (radioligand displacement) on Human CB2 is > 1000 nM. In experiment [1], the “Selectivity, CB2 vs. CB1” value is reported as “− (− indicates < 10-fold)”.

As for `O=C(Nc1ccc(OC(F)(F)F)cc1)C1CCCn2cccc2C1c1ccccc1` (single isomer, unassigned) [Example 113, (8,9-trans)-9-Phenyl-N-(4-(trifluoromethoxy)phenyl)-6,7,8,9-tetrahydro-5H-pyrrolo[1,2-a]azepine-8-carboxamide], the IC50 (radioligand displacement) at Human CB2 is > 1000 nM. The “Selectivity, CB2 vs. CB1” value in experiment [1] was “− (− indicates < 10-fold)”.

For `CC(C)(C)c1ccc(C2c3cccn3CCCC2NC(=O)Nc2ccc(Cl)cc2Cl)cc1` (single isomer, unassigned) [Example 118, 1-(9-(4-tert-Butylphenyl)-6,7,8,9-tetrahydro-5H-pyrrolo[1,2-a]azepin-8-yl)-3-(2,4-dichlorophenyl)urea], the IC50 (radioligand displacement) at Human CB2 was < 1000 nM. Besides, in experiment [1], the “Selectivity, CB2 vs. CB1” value is listed as “− (− indicates < 10-fold)”.

Consider `CC(C)(C)c1ccc(C2c3cccn3CCCC2NC(=O)Nc2ccc(Cl)cc2Cl)cc1` (single isomer, unassigned) [Example 119, 1-(9-(4-tert-Butylphenyl)-6,7,8,9-tetrahydro-5H-pyrrolo[1,2-a]azepin-8-yl)-3-(2,4-dichlorophenyl)urea], for which, at Human CB2, the IC50 (radioligand displacement) was > 1000 nM. The “Selectivity, CB2 vs. CB1” value in experiment [1] was “− (− indicates < 10-fold)”.

Consider `CC(C)(C)c1ccc(C2c3cccn3CCCC2NC(=O)Nc2ccc(Cl)c(Cl)c2)cc1` (single isomer, unassigned) [Example 120, 1-(9-(4-tert-Butylphenyl)-6,7,8,9-tetrahydro-5H-pyrrolo[1,2-a]azepin-8-yl)-3-(3,4-dichlorophenyl)urea], for which the IC50 (radioligand displacement) on Human CB2 was > 1000 nM. The “Selectivity, CB2 vs. CB1” value in experiment [1] was “− (− indicates < 10-fold)”.

As to `CC(C)(C)c1ccc(C2c3cccn3CCCC2NC(=O)Nc2ccc(Cl)c(Cl)c2)cc1` (single isomer, unassigned) [Example 121, 1-(9-(4-tert-Butylphenyl)-6,7,8,9-tetrahydro-5H-pyrrolo[1,2-a]azepin-8-yl)-3-(3,4-dichlorophenyl)urea], on Human CB2, the IC50 (radioligand displacement) was > 1000 nM. Besides, in experiment [1], the “Selectivity, CB2 vs. CB1” value was “− (− indicates < 10-fold)”.

`CC(C)(C)c1ccc(C2NCCn3cccc32)cc1` (centres unmarked) [Example 1, 1-(4-tert-Butylphenyl)-1,2,3,4-tetrahydropyrrolo[1,2-a]pyrazine]: the IC50 (radioligand displacement) on Human CB2 was > 1000 nM. In addition, the “Selectivity, CB2 vs. CB1” value in experiment [1] was “− (− indicates < 10-fold)”.

With `CC(C)(C)c1ccc(C2c3cccn3CCN2C(=O)Nc2ccc(F)cc2F)cc1` (centres unmarked) [Example 2, 1-(4-tert-Butylphenyl)-N-(2,4-difluorophenyl)-3,4-dihydropyrrolo[1,2-a]pyrazine-2(1H)-carboxamide], on Human CB2, the IC50 (radioligand displacement) was < 1000 nM. Moreover, the “Selectivity, CB2 vs. CB1” value in experiment [1] was “+ (+ indicates > 10-fold)”.

Regarding `O=C(Nc1ccc(F)cc1F)N1CCn2cccc2C1c1ccccc1` (centres unmarked) [Example 5, N-(2,4-Difluorophenyl)-1-phenyl-3,4-dihydropyrrolo[1,2-a]pyrazine-2(1H)-carboxamide], the IC50 (radioligand displacement) at Human CB2 is > 1000 nM. For the same molecule, in experiment [1], the “Selectivity, CB2 vs. CB1” value is “+ (+ indicates > 10-fold)”.

Turning to `CC(C)(C)c1ccc(C2c3cccn3CCCN2C(=O)Nc2ccc(F)cc2F)cc1` (centres unmarked) [Example 7, 1-(4-tert-Butylphenyl)-N-(2,4-difluorophenyl)-4,5-dihydro-1H-pyrrolo[1,2-a][1,4]diazepine-2(3H)-carboxamide], the IC50 (radioligand displacement) at Human CB2 was < 1000 nM. For the same molecule, the “Selectivity, CB2 vs. CB1” value in experiment [1] is “+ (+ indicates > 10-fold)”.

Take `Cc1ccc(C2c3cccn3CCCN2C(=O)Nc2ccc(F)cc2F)cc1` (centres unmarked) [Example 8, N-(2,4-Difluorophenyl)-1-p-tolyl-4,5-dihydro-1H-pyrrolo[1,2-a][1,4]diazepine-2(3H)-carboxamide]: at Human CB2, the IC50 (radioligand displacement) is < 1000 nM. For the same molecule, the “Selectivity, CB2 vs. CB1” value in experiment [1] is recorded as “− (− indicates < 10-fold)”.

For `Cc1cccc(C2c3cccn3CCCN2C(=O)Nc2ccc(F)cc2F)c1` (centres unmarked) [Example 10, N-(2,4-Difluorophenyl)-1-m-tolyl-4,5-dihydro-1H-pyrrolo[1,2-a][1,4]diazepine-2(3H)-carboxamide], the IC50 (radioligand displacement) at Human CB2 was > 1000 nM. Besides, the “Selectivity, CB2 vs. CB1” value in experiment [1] was “− (− indicates < 10-fold)”.
